According to patent US7893299B2, “Interleukin-1 and tumor necrosis factor-αmodulators; syntheses of such modulators and methods of using such modulators” (Nereus Pharmaceuticals, Inc., priority 2005, dated 2011):

Key:
Panc1 cells = assay: apoptosis by PI FACS analysis, Panc1; format: cell-based, human; conditions: combination treatment with Salinosporamide A, increased from 4%
Source text: Novel diterpene inhibitors of NFκB derived from acanthoic acid (NPI-1342 (Formula IIB-a1) and NPI-1387; compound 24 under scheme 4 above) show measurable effects in human pancreatic cancer cell lines in vitro. Seven of the nine cell lines were moderately sensitive to apoptosis induced by death receptor ligand Tumor Necrosis Factor (TNF) related apoptosis-inducing ligand (TRAIL). […] Specific silencing of NFkB/p65 expression mimicked these effects. Furthermore, combination treatment of Salinosporamide A and either NPI-1342 or NPI-1387 led to induction of apoptosis as measured by PI FACS analysis. Specifically, levels of DNA fragmentation increased from 4% to 50% in HS766T cells and from 4% to 52% in Panc1 cells. The inhibitory effects of NPI-1342, NPI-1387 on NFκB were evaluated by Electromobility Shift Assays and confirmed by confocal microscopy.

IκBα phosphorylation = assay: phosphorylation level of IκBα in LPS-stimulated HPBMC (western blot); format: cell-based, Human; conditions: 13 μM, 20 ng/ml LPS, compared with DMSO control
Experimental: One ml/well of 3×10^6/ml HPBMC were seeded in 6-well plate in LGM-3 medium and cultured for 12 hr at 37° C., 5% CO2 and 95% humidified air. Final concentration of 13 μM for formula (IIB-A1) (or 10 μM for TTL3) was added to HPBMC for 1 hr. DMSO was used as a control. Cells were then stimulated with 20 ng/ml LPS diluted in LGM-3 medium from 1 mg/ml stock solution for 30 min, 1 hr, 2 hr and 4 hr. At the end of each time point, cells were harvested by centrifugation and cell pellets were washed once in ice-cold 1× Dulbecco's Phosphate buffered Saline (DPBS). To prepare samples for SDS Polyacrylamide Gel Electrophoresis (SDS-PAGE), cells were lysed in RIPA buffer (50 mM Tris-HCl, pH7.4, 0.9% NaCl, 1% Triton X-100, 0.25% Na-deoxycholate, 1 mM EDTA, 2 mM Na3VO4 and 1× protease inhibitors cocktail) for 15 min on ice. Cell lysates were cleared by centrifugation at 14,000 rpm, 4° C. for 10 min. Protein concentrations of cell lysates were determined by BCA protein assay kit prior to SDS-PAGE. Equal amount of proteins from various cell lysates were resolved on 10% NuPage MES precast gels and transferred to nitrocellulose membranes according to the manufacturer's instructions. […]

[1] = system: IκBα and p38 MAP kinase phosphorylation; assay: LPS- or TNF-α-induced phosphorylation of IκBα and p38 MAP kinase in RPMI 8226 cells; format: cell-based; conditions: 13 μM
Experimental: One ml/well of 2×10^6/ml RPMI 8226 cells (#CCL-155C, American Type Culture Collection) were seeded in 6-well plate in LGM-3 medium and cultured for overnight at 37° C., 5% CO2 and 95% humidified air. Formula (IIB-A1) was added to RPMI 8226 cells at the final concentration of 13 μM for 1 hr. DMSO was used as a control. Cells were then either stimulated by LPS (50 ng/ml) or by TNF-α (10 ng/ml) for various length of time. At the end of each period of stimulation, cells were harvested by centrifugation and cell pellets were washed once in ice-cold 1× Dulbecco's Phosphate buffered Saline (DPBS). To prepare samples for SDS-PAGE, cells were lysed in RIPA buffer (50 mM Tris-HCl, pH7.4, 0.9% NaCl, 1% Triton X-100, 0.25% Na-deoxycholate, 1 mM EDTA, 2 mM Na3VO4 and 1× protease inhibitors cocktail) for 15 min on ice. Cell lysates were cleared by centrifugation at 14,000 rpm, 4° C. for 10 min. Protein concentrations of cell lysates were determined by BCA protein assay kit prior to SDS-PAGE. Equal amount of proteins from various cell lysates were resolved on 10% NuPage MES precast gels and transferred to nitrocellulose membranes according to the manufacturer's instructions. […]

[2] = system: TNF-α production in THP-1 cells; assay: LPS-induced TNF-α production in differentiated THP-1 cells (FLISA); format: cell-based; conditions: Homo sapiens, read-out: Percent TNF-α Inhibition; for inhibition at 0.1 µg/mL: 100 ng/ml; for inhibition at 1 µg/mL: 1 ug/ml; for inhibition at 10 µg/mL: 10 ug/ml
Experimental: The ability to inhibit TNF-α production was analyzed in THP-1 cells, a human acute monocytic leukemia cell line that is widely used to assess monocyte functions. In order to induce maturation, THP-1 cells were plated at 1×10^6 cells/ml and pretreated with 5 nM PMA for two days. Differentiated THP-1 cells were pretreated with various concentrations of TTL3 or its analogs for 1 hour, followed by a 4 hour incubation with 1 μg of LPS (Sigma, St. Louse, Mo.). The p38 inhibitor (SB 203580; Sigma, St. Louis, Mo.) was used as a positive control. Supernatants were collected and stored at −80° C. until assayed for TNF-α activity. A resazurin assay was performed for each analog to evaluate the effects on cell metabolism and viability.
To detect the presence of human TNFα, fluorescent linked immunosorbent assay or FLISA was developed and optimized. 100 μl of beads (6 μm, Spherotech) coated with goat anti-mouse IgG (1 mg/ml, R and D Systems) were mixed with 4 μl of biotin-anti-hTNFα mouse IgG (0.1 mg/ml, R and D Systems) and 2 μl of FMAT Blue-streptavidin (0.1 mg/ml, Applied Biosystems). 50 μl of the mixtures was combined with 50 μl of the supernatant isolated from treated THP-1 cells and added to the black wall FLISA plates (Applied Biosystems) and incubated overnight. The plates were scanned at factory set PMT setting, and the values were plotted and analyzed by Applied Biosystems software.

SMILES	inhibition at 0.1 µg/mL [2] [%]	inhibition at 1 µg/mL [2] [%]	inhibition at 10 µg/mL [2] [%]	further results
C=CC(=O)C1(C)CCCC2(C)C3=CCC(C)(C=C)C[C@@H]3CC[C@H]12 (stereo in doubt) [NPI-1387, 1-[(1S,4aS,7R)-1,4a,7-Trimethyl-7-vinyl-1,2,3,4,4a,6,7,8,8a,9,10,10a-dodecahydro-1-phenanthrenyl]-2-propen-1-one]				levels of DNA fragmentation (Panc1 cells): 52%
C=C[C@@]1(C)CCC=C2[C@H]1CC[C@@H]1[C@](C)(C(=O)NC3CCCCC3)CCC[C@@]21C [Formula (IIB-A1), N-Cyclohexylamide Derivative of TTL]				level of IκBα phosphorylation in LPS-stimulated HPBMC (IκBα phosphorylation; listed as Formula (IIB-a1)): decrease; level of IκBα phosphorylation in LPS-stimulated HPBMC (IκBα phosphorylation; listed as formula (IIB-A1)): effectively inhibited; phosphorylation levels of IκBα and p38 MAP kinase induced by LPS and TNF-α in RPMI 8226 cells [1]: specifically inhibits LPS-induced phosphorylation of IκBα and p38 MAP kinase; phosphorylation levels of IκBα and p38 MAP kinase induced by LPS and TNF-α in RPMI 8226 cells ([1]; listed as formula (IIB-A1)): specifically decreases LPS-induced phosphorylation of IκBα and p38 MAP kinase
C=C[C@@]1(C)CCC=C2[C@H]1CC[C@@H]1[C@](C)(C(=O)N3CCOCC3)CCC[C@@]21C [LT-1-85]	10	45	55	
C=C[C@@]1(C)CCC=C2[C@H]1CC[C@@H]1[C@](C)(C(=O)OC)CCC[C@@]21C [TTL3]	30	55	70	
